Laboratory results reported in ChEMBL document CHEMBL4422660, “Synthesis of NSC 106084 and NSC 14778 and evaluation of their DNMT inhibitory activity” (Bioorg Med Chem Lett, 2019).
Active and inactive are the calls of the source. No cut-off for these calls is given here.

System: DNA
Assay: Induction of DNA intercalation using nucleosomal DNA (unknown origin) up to 1 mM by CYBR Green dye-based fluorescence assay
Type: nucleic-acid assay

With `O=C(O)c1cc(Cc2ccc(O)c(C(=O)O)c2)ccc1O` the Activity was “inactive”.
